Tests used:
Cruzain = Cruzain (Trypanosoma cruzi, UniProt P25779); assay: Cysteine protease inhibition, progress curve method, cruzain; type: biochemical; conditions: 4 uM Ac-Lys-Glu-Lys-Leu-Arg-AMC, 100 mM Na acetate pH 5.5, 5 mM cysteine; read-out: Cruzain Ki
Method in brief: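 Buffer was 100 mM sodium acetate pH 5.5 with 5 mM cysteine and 2% DMSO, at ambient temperature; reactions started with enzyme, and AMC formation was followed for 20–30 min. Substrates: Leishmania and Schistosoma, 10 uM Cbz-Phe-Arg-AMC; falcipain, 10 uM Cbz-Leu-Arg-AMC; cruzain, 4 uM Ac-Lys-Glu-Lys-Leu-Arg-AMC. Linear curves gave Ki,app; curved ones gave kobs/[I].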

Rhodazain = Rhodazain (Trypanosoma brucei rhodesiense, UniProt Q95PM0); assay: Cysteine protease inhibition, progress curve method, rhodazain; type: biochemical, Trypanosoma brucei rhodesiensi; conditions: Rhodazain Ki (nM), 10 uM Cbz-Leu-Arg-AMC, 100 mM Na acetate pH 5.5, 5 mM cysteine
Rhodazain, sequence (Q95PM0 entry or part of it): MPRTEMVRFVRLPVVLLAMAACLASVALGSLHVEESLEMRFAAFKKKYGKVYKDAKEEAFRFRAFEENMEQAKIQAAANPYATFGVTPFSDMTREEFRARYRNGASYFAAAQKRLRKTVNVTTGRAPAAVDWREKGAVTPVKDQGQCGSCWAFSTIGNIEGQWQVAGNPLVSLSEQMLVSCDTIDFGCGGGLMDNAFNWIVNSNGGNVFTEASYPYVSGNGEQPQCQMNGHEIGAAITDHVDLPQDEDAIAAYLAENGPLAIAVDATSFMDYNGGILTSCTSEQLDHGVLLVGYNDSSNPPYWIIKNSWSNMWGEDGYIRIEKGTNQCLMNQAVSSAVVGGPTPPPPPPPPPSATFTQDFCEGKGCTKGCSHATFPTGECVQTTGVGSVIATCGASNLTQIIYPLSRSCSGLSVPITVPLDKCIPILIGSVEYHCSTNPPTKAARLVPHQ
Protocol: Standard assay conditions for the determination of kinetic constants used 10 uM fluorogenic peptide substrate, Cbz-Phe-Arg-AMC for the cysteine proteases from Leishmania spp and Schistosoma Mansoni, Cbz-Leu-Arg-AMC for the cysteine proteases from Plasmodium falciparum and Trypanosoma brucei rhodesiensi, and Ac-Lys-Glu-Lys-Leu-Arg-AMC (4 uM final substrate concentration) for the cysteine protease from Trypoanosoma cruzi, and were determined in 100 mM Na acetate at pH 5.5 containing 5 mM cysteine. Stock substrate solutions were prepared at concentrations of […] in DMSO with 10 uM (4 uM for Ac-Lys-Glu-Lys-Leu-Arg-AMC) final substrate concentration in the assays. The final DMSO concentration was 2% and the final volume was 100 uL. All assays were conducted at ambient temperature. Product progress curves were generated over 20 to 30 minutes following formation of AMC product.
Potential inhibitors were evaluated using the progress curve method. Assays were carried out in the presence of variable concentrations of test compound. Reactions were initiated by addition of enzyme to buffered solutions of inhibitor and substrate. Data analysis was conducted according to one of two procedures depending on the appearance of the progress curves in the presence of inhibitors. For those compounds whose progress curves were linear, apparent inhibition constants (Ki,app) were calculated according to equation 1 (Brandt et al., Biochemitsry, 1989, 28, 140):
v=VmA/[Ka(1+I/Ki,app)+A] (1)
Where v is the velocity of the reaction with maximal velocity Vm, A is the concentration of substrate with Michaelis constant of Ka, and I is the concentration of inhibitor.
[AMC]=vsst+(v0−vss)[1−exp (−kobst)]/kobs (2)
Where [AMC] is the concentration of product formed over time t, v0 is the initial reaction velocity and vss is the final steady state rate. Values for kobs were then analyzed as a linear function of inhibitor concentration to generate an apparent second order rate constant (kobs/inhibitor concentration or kobs/[I]) describing the time-dependent inhibition. A complete discussion of this kinetic treatment has been fully described (Morrison et al., Adv. Enzymol. Relat. Areas Mol. Biol., 1988, 61, 201).
Exemplary inhibition data for the compounds used in the present method collected in accordance with the above-described procedure are listed in Table I.

Cruzain, sequence (P25779 123-337): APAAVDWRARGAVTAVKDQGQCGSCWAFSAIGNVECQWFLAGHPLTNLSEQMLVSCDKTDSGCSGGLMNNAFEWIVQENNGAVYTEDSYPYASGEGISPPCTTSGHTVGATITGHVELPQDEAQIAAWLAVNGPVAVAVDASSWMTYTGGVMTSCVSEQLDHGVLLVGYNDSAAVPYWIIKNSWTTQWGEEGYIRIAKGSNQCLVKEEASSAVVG

SMILES | Ki (Cruzain) | Ki (Rhodazain)
CC(C)C[C@H](NC(=O)c1cc2ccccc2o1)C(=O)N[C@H]1C[C@H](C)CN(S(=O)(=O)c2ccccn2)CC1=O (single isomer, unassigned) [Example 173] | 2 nM | 2.2 nM
CC(C)C[C@@H](NC(=O)c1cc2cc(F)ccc2o1)C(=O)N[C@H]1CCCN(S(=O)(=O)c2cccc[n+]2[O-])CC1=O (single isomer, unassigned) [Example 194] | 8.7 nM | 6.7 nM
Cc1c(C(=O)N[C@H](CC(C)C)C(=O)N[C@H]2CCCN(S(=O)(=O)c3cccc[n+]3[O-])CC2=O)oc2ccc(F)cc12 (single isomer, unassigned) [Example 195] | 9.4 nM | 6.6 nM
Cc1c(C(=O)NC(CC(C)C)C(=O)N[C@H]2CCCN(S(=O)(=O)c3cccc[n+]3[O-])CC2=O)oc2cc(F)ccc12 (single isomer, unassigned) [Example 196] | 11 nM | 6.8 nM
Cc1ccc2oc(C(=O)NC(CC(C)C)C(=O)N[C@H]3CCN(S(=O)(=O)c4cccc[n+]4[O-])CCC3=O)c(C)c2c1 (single isomer, unassigned) [Example 206] | 6.6 nM | 4.9 nM
CCc1c(C(=O)NC(CC(C)C)C(=O)N[C@H]2CCN(S(=O)(=O)c3cccc[n+]3[O-])CCC2=O)oc2ccccc12 (single isomer, unassigned) [Example 207] | 10 nM | 5.4 nM
COc1ccc2c(C)c(C(=O)NC(CC(C)C)C(=O)N[C@H]3CCN(S(=O)(=O)c4cccc[n+]4[O-])CCC3=O)oc2c1 (single isomer, unassigned) [Example 211] | 10 nM | 2.8 nM
CC(C)C[C@@H](NC(=O)c1ccc2ncccc2c1)C(=O)N[C@@H]1CCCN(S(=O)(=O)c2ccccn2)CC1=O (stereo in doubt) [Example 25, Quinoline-6-carboxylic acid {(S)-3-methyl-1-[3-oxo-1-(pyridine-2-sulfonyl)-azepan-4-ylcarbamoyl]-butyl}amide] | 8.3 nM | 8 nM
CC(C)C[C@@H](NC(=O)c1ccnc2ccccc12)C(=O)N[C@@H]1CCCN(S(=O)(=O)c2ccccn2)CC1=O (stereo in doubt) [Example 26, Quinoline-4-carboxylic acid {(S)-3-methyl-1-[3-oxo-1-(pyridine-2-sulfonyl)-azepan-4-ylcarbamoyl]-butyl}amide] | 9.4 nM | 8.1 nM
CC(C)C[C@@H](NC(=O)c1cnc2ccccc2n1)C(=O)N[C@@H]1CCCN(S(=O)(=O)c2ccccn2)CC1=O (stereo in doubt) [Example 30, Quinoxaline-2-carboxylic acid {(S)-3-methyl-1-[3-oxo-1-(pyridine-2-sulfonyl)-azepan-4-ylcarbamoyl]-butyl}amide] | 17 nM | 10 nM
CC(C)C[C@@H](NC(=O)c1cc2ccccc2s1)C(=O)N[C@@H]1CCCN(S(=O)(=O)c2ccccn2)CC1=O (stereo in doubt) [Example 31, Benzo[b]thiophene-2-carboxylic acid {(S)-3-methyl-1-[3-oxo-1-(pyridine-2-sulfonyl)-azepan-4-ylcarbamoyl]-butyl}amide] | 7.2 nM | 5 nM
CC(C)C[C@@H](NC(=O)c1ccc(Br)o1)C(=O)N[C@@H]1CCCN(S(=O)(=O)c2ccccn2)CC1=O (stereo in doubt) [Example 34, 5-Bromo-furan-2-carboxylic acid {(S)-3-methyl-1-[3-oxo-1-(pyridine-2-sulfonyl)-azepan-4-ylcarbamoyl]-butyl}amide] | 12 nM | 2.6 nM
CC(C)C[C@@H](NC(=O)c1cc2cc(F)c(F)cc2o1)C(=O)N[C@@H]1CCCN(S(=O)(=O)c2ccccn2)CC1=O (stereo in doubt) [Example 149, 5,6-Difluoro-benzofuran-2-carboxylic acid {(S)-3-methyl-1-[1-(pyridine-2-sulfonyl)-3-oxo-azepan-4-ylcarbamoyl]-butyl}amide] | 9.1 nM | 6.3 nM
Cc1cccnc1S(=O)(=O)N1CCC[C@@H](NC(=O)[C@@H](CC(C)C)NC(=O)c2oc3ccccc3c2C)C(=O)C1 (stereo in doubt) [Example 161, 3-Methyl-benzofuran-2-carboxylic acid {(S)-3-methyl-1-[1-(3-methyl-pyridine-2-sulfonyl)-3-oxo-azepan-4-ylcarbamoyl]-butyl}amide] | 7.8 nM | 6.4 nM
CC(C)C[C@H](NC(=O)c1cc2ccccc2s1)C(=O)N[C@H]1CCCN(C(=O)Nc2ccccc2F)CC1=O (stereo in doubt) [Example 215, Benzo[b]thiophene-2-carboxylic acid {(S)-1-[1-(2-fluoro-phenylcarbamoyl)-3-oxo-azepan-4-ylcarbamoyl]-3-methyl-butyl}-amide] | 6.4 nM | 3.6 nM
CC(C)C[C@@H](NC(=O)c1cc2ccccc2o1)C(=O)N[C@@H]1CCCN(S(=O)(=O)c2ccccn2)CC1=O [Example 16] | 6.1 nM | 5.5 nM
CC(C)C[C@@H](NC(=O)c1cc2cc(OCC[N+]3([O-])CCOCC3)ccc2o1)C(=O)N[C@@H]1CCCN(S(=O)(=O)c2ccccn2)CC1=O [Example 43, 5-(4-Oxy-morpholino-4-yl-ethoxy)-benzofuran-2-carboxylic acid {(S)-3-methyl-1-[3-oxo-1-(pyridine-2-sulfonyl)-azepan-4-ylcarbamoyl]-butyl}amide] | 3.6 nM | 4.9 nM
CC(C)C[C@H](NC(=O)c1cc2cc(O)ccc2o1)C(=O)N[C@H]1CCCN(S(=O)(=O)c2cn(C)cn2)CC1=O [Example 44, 5-Hydroxy-benzofuran-2-carboxylic acid {(S)-3-methyl-1-[1-(1-methyl-1H-imidazole-4-sulfonyl)-3-oxo-azepan-4-ylcarbamoyl]-butyl}amide] | 11 nM | 7.2 nM
CC(C)C[C@@H](NC(=O)c1ccc(Br)o1)C(=O)N[C@@H]1CCCN(S(=O)(=O)c2cccc[n+]2[O-])CC1=O [Example 47] | 13 nM | 2.7 nM
CC(C)C[C@@H](NC(=O)c1cc2ccccc2o1)C(=O)N[C@@H]1CCCN(S(=O)(=O)c2cccc[n+]2[O-])CC1=O [Example 49] | 5.6 nM | 3.1 nM
CC(C)C[C@@H](NC(=O)c1ccc(Br)o1)C(=O)N[C@@H]1CCCN(S(=O)(=O)c2cccc[n+]2[O-])CC1=O [Example 50, 5-Bromo-furan-2-carboxylic acid {(S)-3-methyl-1-[3-oxo-1-(1-oxy-pyridine-2-sulfonyl)-azepan-4-ylcarbamoyl]-butyl}amide] | 10 nM | 2.1 nM
COc1cc2cc(C(=O)N[C@H](CC(C)C)C(=O)N[C@@H]3CCCN(S(=O)(=O)c4cccc[n+]4[O-])CC3=O)oc2cc1OC [Example 52, 5,6-Dimethoxy-benzofuran-2-carboxylic acid {(S)-3-methyl-1-[3-oxo-1-(1-oxy-pyridine-2-sulfonyl)-azepan-4-ylcarbamoyl]-butyl}amide] | 48 nM | 3.3 nM
CC(C)C[C@@H](NC(=O)c1ccc2c(c1)OCO2)C(=O)N[C@@H]1CCCN(S(=O)(=O)c2cccc[n+]2[O-])CC1=O [Example 55, Benzo[1,3]dioxole-5-carboxylic acid {(S)-3-methyl-1-[3-oxo-1-(1-oxy-pyridine-2-sulfonyl)-azepan-4-ylcarbamoyl]-butyl}amide] | 12 nM | 7.3 nM
Cc1c(C(=O)N[C@H](CC(C)C)C(=O)NC2CCCN(S(=O)(=O)c3cccc[n+]3[O-])CC2=O)oc2ccccc12 (stereo partly drawn) [Example 57, 3-Methyl-benzofuran-2-carboxylic acid {(S)-3-methyl-1-[3-oxo-1-(1-oxy-pyridine-2-sulfonyl)-azepan-4-ylcarbamoyl]-butyl}amide] | 10 nM | 5.4 nM
Cc1c(C(=O)N[C@@H](CC(C)C)C(=O)NC2CCCN(S(=O)(=O)c3ccccn3)CC2=O)oc2ccccc12 (stereo partly drawn) [Example 70, 3-Methyl-benzofuran-2-carboxylic acid {(S)-3-methyl-1-[3-oxo-1-(pyridine-2-sulfonyl)-azepan-4-ylcarbamoyl]-butyl}amide] | 6.6 nM | 5.5 nM
